The values that follow come from patent US12630563B2, “Macrocyclic RIP2-kinase inhibitors” (Oncodesign S.A., priority 2020, dated 2026).

The assay deals with T1, recombinant hRIPK2 protein (kinase domain aa 1-299-His-tagged) (Homo sapiens, UniProt O43353).
T1 construct: kinase domain aa 1-299-His-tagged; purchased Life Technologies PR7829A
The assay can be described thus: RIPK2 AlphaLISA assay (displacement of bead-bound CZC-8004 from hRIPK2). It counts as binding. To be noted: recombinant hRIPK2 kinase domain 10 nM, 2 h at 23° C. An excerpt: RIPK2 AlphaLISA® Assay (Amplified Luminescent Proximity Homogeneous Assay)
A non-specific kinase inhibitor (CZC-8004 Cayman #916603-07-1) bound to an acceptor bead (#6772001 PerkinElmer) was mixed to the recombinant hRIPK2 protein (kinase domain aa 1-299-His-tagged—Life Technologies PR7829A) and a Ni2+-tagged donor beads (#AS101D PerkinElmer). In the presence of an inhibitor, the compound beads displacement from hRIPK2 was followed by signal loss. In a 384-well ProxiPlate@ (Perkin Elmer, 6008280) add:
2 μL RIPK2 inhibitor (in DMSO 0.8%).
2 μL human recombinant RIPK2 (10 nM diluted in AlphaLISA buffer 1×).
4 μL Mix of […] 1/1000 in AlphaLISA buffer 1×.
Homogenize using a microtiter plate shaker and incubate for 2 h at 23° C.
Read using EnVision®-Alpha Reader (PerkinElmer) according to manufacturer specifications.
On the technique in general: Bead proximity is the source of the signal in Alpha formats.

T1 sequence (O43353 1-299): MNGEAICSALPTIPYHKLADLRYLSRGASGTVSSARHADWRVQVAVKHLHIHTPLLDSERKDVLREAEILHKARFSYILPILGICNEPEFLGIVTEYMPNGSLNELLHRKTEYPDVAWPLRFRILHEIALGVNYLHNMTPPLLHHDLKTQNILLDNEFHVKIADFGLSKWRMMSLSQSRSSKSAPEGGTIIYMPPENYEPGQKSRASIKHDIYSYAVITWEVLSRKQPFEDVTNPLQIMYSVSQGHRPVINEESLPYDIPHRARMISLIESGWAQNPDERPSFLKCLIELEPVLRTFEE

Usually IC50 stands for the concentration that inhibits the measured activity by half. On to `COCCO[C@@H]1C[C@H]2COc3ccn4ncc(c4n3)-c3cc(cc(OC(F)F)c3)NCCN2C1=O` (racemic) [Example 111, (12R,14S)-4-(difluoromethoxy)-12-(2-methoxyethoxy)-16-oxa-7,10,20,21,24-pentaazapentacyclo[15.5.2.1^2,6.0^10,^14.0^20,^23]pentacosa-1(23),2(25),3,5,17(24),18,21-heptaen-11-one], for which the IC50 was below 10 nM.

With `[2H]C([2H])([2H])O[C@@H]1C[C@H]2COc3ccn4ncc(c4n3)-c3cc(F)cc(c3)NCCN2C1=O` [Example 36, (12R,14S)-4-fluoro-12-(^2H3)methoxy-16-oxa-7,10,20,21,24-pentaazapentacyclo[15.5.2.1^2,6.0^10,^14.0^20,^23]pentacosa-1(23),2(25),3,5,17(24),18,21-heptaen-11-one], the IC50 is below 10 nM.

In the case of `CO[C@@H]1CC2(C)COc3ccn4ncc(c4n3)-c3cc(F)cc(c3)NCCN2C1=O` (single isomer, unassigned) [Example 86], the IC50 is below 10 nM.

In the case of `CCO[C@@H]1C[C@H]2COc3nc4c(cnn4cc3C)-c3cc(F)cc(c3)NCCN2C1=O` [Example 18, (12R,14S)-12-ethoxy-4-fluoro-18-methyl-16-oxa-7,10,20,21,24-pentaazapentacyclo[15.5.2.1^2,6.0^10,^14.0^20,^23]pentacosa-1(23),2,4,6(25),17(24),18,21-heptaen-11-one], the IC50 is below 10 nM.

Regarding `COc1cc2cc(c1)-c1cnn3ccc(nc13)OC[C@@H]1C[C@@H](OC)C(=O)N1C(C)CN2` (stereo partly drawn) [Example 142, (12R,14S)-4,12-dimethoxy-9-methyl-16-oxa-7,10,20,21,24-pentaazapentacyclo[15.5.2.1^2,6.0^1°,^14.0^2°,^23]pentacosa-1(23),2(25),3,5,17(24),18,21-heptaen-11-one], the IC50 lay within 10 to 100 nM.

`CO[C@H]1C[C@H]2COc3ccn4ncc(c4n3)-c3cc(F)cc(c3)NCCN2C1=O` [Example 25, (12S,14S)-4-fluoro-12-methoxy-16-oxa-7,10,20,21,24-pentaazapentacyclo[15.5.2.1^2,6.0^10,^14.0^20,^23]pentacosa-1(23),2(25),3,5,17(24),18,21-heptaen-11-one]: the IC50 is below 10 nM.

Turning to `COc1cc2cc(c1)-c1cnn3cc(OC)c(nc13)OC[C@@H]1C[C@@H](OCCN(C)C)C(=O)N1CCN2` [Example 135, (12R,14S)-12-[2-(dimethylamino)ethoxy]-4,18-dimethoxy-16-oxa-7,10,20,21,24-pentaazapentacyclo[15.5.2. 1^2,6.0^10,^14.0^20,^23]pentacosa-1(23),2,4,6(25),17(24),18, 21-heptaen-11-one], the IC50 was below 10 nM.

Take `COc1cn2ncc3c2nc1OC[C@@H]1C[C@@H](OC)C(=O)N1CCNc1cc-3cc(C(F)(F)F)c1` [Example 2, (12R,14S)-12,18-dimethoxy-4-(trifluoromethyl)-16-oxa-7,10,20,21,24-pentaazapentacyclo[15.5.2.1^2,6.0^10,^14.0^20,^23]pentacosa-1(23),2(25),3,5,17(24),18,21-heptaen-11-one]: the IC50 was below 10 nM.

Consider `CO[C@@H]1C[C@H]2COc3ccn4ncc(c4n3)-c3cc(cc(C(=O)N(C)CC4CC4)c3)NCCN2C1=O` [Example 61, (12R,14S)-N-(cyclopropylmethyl)-12-methoxy-N-methyl-11-oxo-16-oxa-7,10,20,21,24-pentaazapentacyclo[15.5.2.1^2,6.0^10,^14.0^20,^23]pentacosa-1(23),2,4,6(25),17(24),18,21-heptaene-4-carboxamide], for which the IC50 was 100 to 11000 nM.

Turning to `COCCO[C@@H]1C[C@H]2COc3nc4c(cnn4cc3OC3CC4(COC4)C3)-c3cc(cc(OC)c3)NCCN2C1=O` [Example 136, (12R,14S)-4-methoxy-12-(2-methoxyethoxy)-18-{2-oxaspiro[3.3]heptan-6-yloxy}-16-oxa-7,10,20,21,24-pentaazapentacyclo[15.5.2. 1^2,6.0^10,^14.0^20,^23]pentacosa-1(23),2,4,6(25),17(24),18,21-heptaen-11-one], the IC50 was below 10 nM.

Regarding `COCCO[C@@H]1C[C@H]2COc3ccn4ncc(c4n3)-c3cc(F)cc(c3)NCCN2C1=O` [Example 35, (12R,14S)-4-fluoro-12-(2-methoxyethoxy)-16-oxa-7,10,20,21,24-pentaazapentacyclo[15.5.2.1^2,6.01^0,^14.0^20,23]pentacosa-1(23),2,4,6(25),17(24),18,21-heptaen-11-one], the 50% inhibitory concentration (IC50) is below 10 nM.

Take `O=C1[C@H](OCC2COC2)C[C@H]2COc3ccn4ncc(c4n3)-c3cc(F)cc(c3)NCCN12` [Example 91, (12R,14S)-4-fluoro-12-(oxetan-3-ylmethoxy)-16-oxa-7,10,20,21,24-pentaazapentacyclo[15.5.2.1^2,6.0^1°,^14.0^2°,^23]pentacosa-1(23),2(25),3,5,17(24),18,21-heptaen-11-one]: the IC50 is below 10 nM.

For `CCO[C@@H]1C[C@@H]2COc3ccn4ncc(c4n3)-c3cc(cc(OC)c3)NCCN2C1=O` [Example 87, (12R,14R)-12-ethoxy-4-methoxy-16-oxa-7,10,20,21,24-pentaazapentacyclo[15.5.2.1^2,6.0^10,^14.0^20,^23]pentacosa-1(23),2,4,6(25),17(24),18,21-heptaen-11-one], the half-inhibitory concentration (IC50) was in the range of 100 to 11000 nM.

Regarding `[2H]C([2H])([2H])Oc1cc2cc(c1)-c1cnn3ccc(nc13)OC[C@@H]1C[C@@H](OC([2H])([2H])[2H])C(=O)N1CCN2` [Example 53, (12R,14S)-4,12-bis(^2H3)methoxy-16-oxa-7,10,20,21,24-pentaazapentacyclo[[15.5.2.1^2,6.0^10,^14.0^20,^23]pentacosa-1(23),2,4,6(25),17(24),18,21-heptaen-11-one], the concentration for half-maximal inhibition (IC50) was below 10 nM.

In the case of `CO[C@@H]1C[C@H]2COc3ccn4ncc(c4n3)-c3cc(F)cc(c3)N(C(C)=O)CCN2C1=O` [Example 74, (12R,14S)-7-acetyl-4-fluoro-12-methoxy-16-oxa-7,10,20,21,24-pentaazapentacyclo[15.5.2.1^2,6.0^1°,^14.0^2°,^23]pentacosa-1(23),2,4,6(25),17(24),18,21-heptaen-11-one], the 50% inhibitory concentration (IC50) is 10 to 100 nM.

With `CCO[C@@H]1C[C@H]2COc3ccn4ncc(c4n3)-c3cc(cc(C(=O)N(C)OC)c3)NCCN2C1=O` [Example 57, (12R,14S)-12-ethoxy-N-methoxy-N-methyl-11-oxo-16-oxa-7,10,20,21,24-pentaazapentacyclo[15.5.2.1^2,6.0^10,^14.0^20,^23]pentacosa-1(23),2(25),3,5,17(24),18,21-heptaene-4-carboxamide], the IC50 is below 10 nM.

Take `CO[C@@H]1C[C@H]2COc3ccn4ncc(c4n3)-c3cc(cc(OC(C)C)c3)NCCN2C1=O` [Example 8, (12R,14S)-12-methoxy-4-(propan-2-yloxy)-16-oxa-7,10,20,21,24-pentaazapentacyclo[15.5.2.1^2,6.0^10,^14.0^20,^23]pentacosa-1(23),2,4,6(25),17(24),18,21-heptaen-11-one]: the IC50 was below 10 nM.

Regarding `[2H]C([2H])([2H])O[C@@H]1C[C@H]2COc3ccn4ncc(c4n3)-c3cc(cc(OC)c3)NCCN2C1=O` [Example 37, (12R,14S)-12-(2H3)methoxy-4-methoxy-16-oxa-7,10,20,21,24-pentaazapentacyclo[15.5.2.1^2,6.0^10,^14.0^20,^23]pentacosa-1(23),2,4,6(25),17(24),18,21-heptaen-11-one], the half-maximal inhibitory concentration (IC50) is below 10 nM.

For the compound `CO[C@@H]1C[C@H]2COc3nc4c(cnn4cc3C)-c3cc(cc(-n4cccn4)c3)NCCN2C1=O` [Example 42, (12R,14S)-12-methoxy-18-methyl-4-(1H-pyrazol-1-yl)-16-oxa-7,10,20,21,24-pentaazapentacyclo[15.5.2.1^2,6.0^10,^14.0^20,^23]pentacosa-1(23),2(25),3,5,17(24),18,21-heptaen-11-one], the IC50 was below 10 nM.

For the compound `CO[C@@H]1C[C@H]2COc3nc4c(cnn4cc3C)-c3cc(cc(OCC4CCOC4)c3)NCCN2C1=O` (stereo partly drawn) [Example 50, (12R,14S)-12-methoxy-18-methyl-4-(oxolan-3-ylmethoxy)-16-oxa-7,10,20,21,24-pentaazapentacyclo[15.5.2.1^2,6.0^10,^14.0^20,^23]pentacosa-1(23),2,4,6(25),17(24),18,21-heptaen-11-one], the IC50 fell in the range of 10 to 100 nM.

As to `COc1cc2cc(c1)-c1cnn3cc(OC)c(nc13)OC[C@@H]1C[C@@H](OC)C(=O)N1CCN2` [Example 133, (12R,14S)-4,12,18-trimethoxy-16-oxa-7,10,20,21,24-pentaazapentacyclo[15.5.2. 1^2,6.0^10,^14.0^20,^23]pentacosa-1(23),2,4,6(25),17(24),18, 21-heptaen-11-one], the IC50 is below 10 nM.

For `CO[C@@H]1C[C@H]2COc3nc4c(cnn4cc3-c3cnn(C)c3C)-c3cc(F)cc(c3)NCCN2C1=O` [Example 68], the IC50 was below 10 nM.

On to `CO[C@@H]1C[C@H]2COc3ccn4ncc(c4n3)-c3cc(cc(F)c3F)NCCN2C1=O` [Example 15, (12R,14S)-3,4-difluoro-12-methoxy-16-oxa-7,10,20,21,24-pentaazapentacyclo[15.5.2.1^2,6.0^10,^14.0^20,^23]pentacosa-1(23),2,4,6(25),17(24),18,21-heptaen-11-one], for which the IC50 was 10 to 100 nM.

For `CCOc1cn2ncc3c2nc1OC[C@@H]1C[C@@H](OCCOC)C(=O)N1CCNc1cc(OC)cc-3c1` [Example 124, (12R,14S)-18-ethoxy-4-methoxy-12-(2-methoxyethoxy)-16-oxa-7,10,20,21,24-pentaazapentacyclo[15.5.2. 1^2,6.0^10,^14.0^20,^23]pentacosa-1(23),2,4,6(25),17(24),18,21-heptaen-11-one], the IC50 was below 10 nM.
